Data from paper PMC4014984, “The tetrapeptide core of the carrier peptide Xentry is cell-penetrating: novel activatable forms of Xentry” (Scientific Reports, 2014).
Square brackets hold non-standard residues; d marks the D form. Peptide text beside a SMILES is read from it. * marks the point of attachment. FITC = O=C1OC2(c3ccc(O)cc3Oc3cc(O)ccc32)c2ccc(NC(=S)*)cc21

Experiments:
HepG2 cells [1] = system: HepG2 cells
WM-266-4 cells = assay: Cell-penetrating ability of Xentry peptides, fluorescence microscopy; details: for Uptake by WM-266-4 cells (in words): FITC-labelled L-isomeric peptides, 10 μM, 3 h, fixed cells; for Uptake by WM-266-4 cells: scored visually, labelled peptides incubated 3 h at 37°C, L-isomers in media without FCS, D-isomers with FCS
BT549 cells = assay: as above; details: for Uptake by BT549 cells (in words): FITC-labelled L-isomeric peptides, 10 μM, 3 h, fixed cells; for Uptake by BT-549cells: scored visually, labelled peptides incubated 3 h at 37°C, L-isomers in media without FCS
HepG2 cells [2] = assay: Cell-penetrating ability of Xentry peptides, fluorescence/confocal microscopy; details: for Uptake by HepG2 cells (in words): FITC-labelled L-isomeric peptides, 10 μM, 3 h, fixed cells, fluorescence or confocal microscopy; for Uptake by HepG2 cells: scored visually, fluorescence microscopy, labelled peptides incubated 3 h at 37°C, L-isomers in media without FCS, D-isomers with FCS
HepG2 cells [3] = assay: Quantification of peptide uptake by overall cell fluorescence in wells (plate reader); details: HepG2, 10 μM, 3 h, media without FCS, plate reader ex 485 nm / em 520 nm, mean ± SD n = 4, Student's t-test
HepG2 cells [4] = system: HepG2 cells; remark: listed apart in the source
MCF-7 cells = assay: Uptake of activatable Xentry peptides with or without MMP-9 pretreatment; details: then 3 h with MCF-7 cells, fluorescence or confocal microscopy

Compound	Uptake by WM-266-4 cells (in words) (WM-266-4 cells)	Uptake by WM-266-4 cells (WM-266-4 cells)	Uptake by BT549 cells (in words) (BT549 cells)	Uptake by BT-549cells (BT549 cells)	Uptake by HepG2 cells (in words) (HepG2 cells [2])	Uptake by HepG2 cells (HepG2 cells [2])	further results
GRKKRRQRRRPPQGGRRRQQQQQQRRR [penetratin]							Effect on viability of HepG2 cells (HepG2 cells [1]): no significant affect
LCLQ		+	maintained cell-permeability	+++	did not improve uptake	++	Cell-penetrating ability compared with LCLR (overall cell fluorescence in wells) (HepG2 cells [3]): not significantly different
LCLRPVGGGGGGGGGGGGGGGLCLRPVG							Uptake of linear multivalent forms of Xentry by HepG2 cells (HepG2 cells [4]): unable to penetrate
CC(C)C[C@@H](N)C(=O)N[C@H](CS)C(=O)N[C@H](CC(C)C)C(=O)N[C@H](CCCNC(=N)N)C(=O)N1CCC[C@@H]1C(=O)N[C@@H](C(=O)NCC(=O)NCC(=O)NCC(=O)NCC(=O)N1CCC[C@H]1C(=O)N[C@@H](CC(C)C)C(=O)NCC(=O)N[C@@H](CC(C)C)C(=O)N[C@@H](C)C(=O)NCC(=O)NCC(=O)N[C@H](CC(C)C)C(=O)N[C@H](CS)C(=O)N[C@H](CC(C)C)C(=O)N[C@H](CCCNC(=N)N)C(=O)N1CCC[C@@H]1C(=O)N[C@@H](C(=O)NCC(=O)N[C@H](CCCCNC(=S)Nc1ccc2c(c1)C(=O)OC21c2ccc(O)cc2Oc2cc(O)ccc21)C(=O)O)C(C)C)C(C)C [lclrpvGGGGPLGLAGGlclrpvgk-FITC] (H-[dL][dC][dL][dR][dP][dV]GGGGPLGLAGG[dL][dC][dL][dR][dP][dV]G[dK](FITC)-OH)							Uptake by MCF-7 cells after pretreatment with MMP-9 (MCF-7 cells; 10 μM peptide incubated 3 h at 37°C with activated MMP-9 (0.4 μg/ml)): led to uptake of the digested peptide; Uptake by MCF-7 cells, peptide not treated with MMP-9 (MCF-7 cells; 10 μM peptide left untreated): not cell-permeable
LCLRPVG				+++			
LCLK	taken up well	+++	taken up well		taken up well		Cell-penetrating ability compared with LCLR (overall cell fluorescence in wells) (HepG2 cells [3]): reduced activity
LCLRPVGGGRRRQQQQQQRRR							Effect on HepG2 viability relative to the other three CPPs (HepG2 cells [1]): least effect; Effect on viability of HepG2 cells (HepG2 cells [1]): no significant affect
LLLRR	poorly cell-permeable	-	poorly cell-permeable	-	failed to improve cell-penetrating ability	-	

Second part, led by results:

Uptake by WM-266-4 cells (in words) (WM-266-4 cells)	Uptake by WM-266-4 cells (WM-266-4 cells)	Uptake by BT549 cells (in words) (BT549 cells)	Uptake by BT-549cells (BT549 cells)	Uptake by HepG2 cells (in words) (HepG2 cells [2])	Uptake by HepG2 cells (HepG2 cells [2])	Compound	further results
poorly cell-permeable	-	poorly cell-permeable	-	poorly penetrated	-	LLLR	
readily taken up	+++	readily taken up	+++	less well	++	LCLE	Cell-penetrating ability compared with LCLR (overall cell fluorescence in wells) (HepG2 cells [3]): not significantly different
poorly cell-permeable	-	poorly cell-permeable		improved cell uptake		IIIR	
	+		+++		+	LCLN	Cell-penetrating ability compared with LCLR (overall cell fluorescence in wells) (HepG2 cells [3]): reduced activity
poorly cell-permeable	-	poorly cell-permeable	+	poorly penetrated	+	LLLLR	
poorly cell-permeable	-	poorly cell-permeable	-	improved cell uptake	++	VVVR	
